Key:
[1] = molecular target: FGFR-1 (Mus musculus, UniProt P16092); test: Covalent cross-linking of 125I-bFGF to CHO cells transfected with FGFR-1; format: binding; set-up: expressed in transfected cells; host or cells: CHO cells deficient in heparan sulfate; details: FIG. 2
Description: Binding of ^125I-bFGF to confluent monolayers of PGFR-1 expressing CHO cells or ^125I-FGF9 to FGFR-3 expressing CHO cells, was performed as described in Methods, section (iv), in the presence or absence of P1 (Inhibitor). After 90 min, disuccinylimidyl suberate [DSS]
(iv) Binding of ^125I-bFGF and ^125I-FGF9 to cells. Confluent cultures of CHO cells expressing FGFR-1(Yayon et al, 1991) or FGFR-3 (Hecht et al, 1995) in 24-well plates (Falcon) were precooled and washed twice with cold DMEM supplemented with 20 mM Hepes (pH 7.5) and 0.1% bovine serum albumin (DMEM/BSA). They were then incubated for 1.5 h at 4° C. with ^125I-bFGF (2 ng/ml) and increasing concentrations of porphyrin/corrole compound. The binding medium was discarded and the cells were washed once with ice-cold DMEM/BSA and twice with cold PBS (pH 7.5) containing 1.6M NaCl. […] Non-specific binding was determined in the presence of a 100-fold excess of unlabeled bFGF.
In order to unequivocally determine the specificity of the binding inhibition, chemical cross-linking of ^125I-bFGF and ^125I-FGF9 to CHO cells transfected with FGFR-1 and FGFR-3, respectively, was carried out as described in Methods, section (iv), in the absence or presence of increasing concentrations of P1.

[2] = molecular target: EGF tyrosine kinase receptor (Homo sapiens, UniProt P00533); test: Binding of EGF to its high affinity tyrosine kinase receptor
Chain of EGF tyrosine kinase receptor (P00533 25-1210): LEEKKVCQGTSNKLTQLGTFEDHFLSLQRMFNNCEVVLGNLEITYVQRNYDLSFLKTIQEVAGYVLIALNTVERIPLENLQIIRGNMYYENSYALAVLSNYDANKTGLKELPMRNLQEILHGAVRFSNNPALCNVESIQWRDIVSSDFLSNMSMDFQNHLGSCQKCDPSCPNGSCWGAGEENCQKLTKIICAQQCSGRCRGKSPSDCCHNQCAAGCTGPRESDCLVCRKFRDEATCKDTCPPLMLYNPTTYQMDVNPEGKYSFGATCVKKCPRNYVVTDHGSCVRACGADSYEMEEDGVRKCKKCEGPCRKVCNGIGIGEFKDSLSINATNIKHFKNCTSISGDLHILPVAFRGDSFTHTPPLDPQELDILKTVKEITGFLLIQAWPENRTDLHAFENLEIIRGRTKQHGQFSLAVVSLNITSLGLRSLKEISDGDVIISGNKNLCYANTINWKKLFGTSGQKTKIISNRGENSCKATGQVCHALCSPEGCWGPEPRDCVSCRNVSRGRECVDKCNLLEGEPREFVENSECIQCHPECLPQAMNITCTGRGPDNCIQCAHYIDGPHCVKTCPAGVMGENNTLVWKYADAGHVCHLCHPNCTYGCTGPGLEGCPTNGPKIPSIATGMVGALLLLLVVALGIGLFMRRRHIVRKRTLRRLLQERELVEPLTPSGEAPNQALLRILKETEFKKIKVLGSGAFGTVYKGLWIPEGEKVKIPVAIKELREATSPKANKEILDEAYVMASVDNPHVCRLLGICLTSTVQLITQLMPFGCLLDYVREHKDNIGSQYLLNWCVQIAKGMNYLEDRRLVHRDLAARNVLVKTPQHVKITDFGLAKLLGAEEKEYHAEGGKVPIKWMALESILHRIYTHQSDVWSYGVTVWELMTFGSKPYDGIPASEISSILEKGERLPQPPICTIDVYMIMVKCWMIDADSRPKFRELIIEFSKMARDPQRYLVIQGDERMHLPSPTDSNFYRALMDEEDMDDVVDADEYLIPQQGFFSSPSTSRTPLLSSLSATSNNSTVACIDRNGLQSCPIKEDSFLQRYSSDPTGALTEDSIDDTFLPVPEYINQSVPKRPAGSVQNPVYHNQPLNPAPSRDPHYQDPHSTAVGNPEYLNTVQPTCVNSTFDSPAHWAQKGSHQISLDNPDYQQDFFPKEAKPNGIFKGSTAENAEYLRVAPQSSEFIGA

[3] = tested on: smooth muscle cells; test: Smooth muscle cell proliferation induced by bFGF; format: cell-based; details: 2 μg/ml or 20 μg/ml of P1; bFGF 10 ng/ml; FIG. 16
Description: In order to determine the ability of P1 to inhibit the biological activity of bFGF on cell proliferation, smooth muscle cells were grown in 24-well plates in the presence of bFGF (10 ng/ml) and in the presence of 2 μg/ml or 20 μg/ml of P1. Cell number was determined daily by counting cell samples under a microscope.

[4] = tested on: microvascular tubules sprouting from rat aorta sections; test: Rat aorta in vitro angiogenesis assay (collagen gel, bFGF-induced); format: cell-based
Description: (vi) Rat aorta in vitro angiogenesis assay. Rings of rat aorta sections were immobilized in a three-dimensional collagen gel, in the presence of serum free growth medium (D/MEM) (Nicosia & Ottinetti, 1990). Porphyrin or corrole compound and bFGF (2 ng/ml) were added to the growth medium twice a week when indicated. After 14 days the cultures were fixed, and the extent of microvascular endothelial tube outgrowth was measured under a light microscope (Miao et al., 1997).
The effect of P1 was further examined in a biological assay for angiogenesis in vitro. Angiogenic vascularization is a process in which bFGF is known to play a pivotal role (Folkman, 1989). To examine the inhibitory effects of the porphyrin on bFGF-promoted angiogenesis, we employed an in vitro angiogenic assay using rat aorta sections embedded in a collagen gel (Methods, section (vi)). The assay measures the extent of endothelial cell growth and microvascular tubules sprouting from the vessel tissue embedded in the gel. Basal tubule formation can be detected even when no additional factors are added.

[5] = molecular target: T1, flt-1 VEGF receptor AP fusion protein (Homo sapiens, UniProt P17948); test: Binding of soluble VEGF receptor flt-1-AP fusion protein to immobilized VEGF; details: FIG. 10B; read-out: IC50, inhibition of flt-1-AP binding to immobilized VEGF
T1 construct: soluble VEGF receptor flt-1-AP fusion protein; made in house
T1 sequence (P17948 27-758 limits assumed): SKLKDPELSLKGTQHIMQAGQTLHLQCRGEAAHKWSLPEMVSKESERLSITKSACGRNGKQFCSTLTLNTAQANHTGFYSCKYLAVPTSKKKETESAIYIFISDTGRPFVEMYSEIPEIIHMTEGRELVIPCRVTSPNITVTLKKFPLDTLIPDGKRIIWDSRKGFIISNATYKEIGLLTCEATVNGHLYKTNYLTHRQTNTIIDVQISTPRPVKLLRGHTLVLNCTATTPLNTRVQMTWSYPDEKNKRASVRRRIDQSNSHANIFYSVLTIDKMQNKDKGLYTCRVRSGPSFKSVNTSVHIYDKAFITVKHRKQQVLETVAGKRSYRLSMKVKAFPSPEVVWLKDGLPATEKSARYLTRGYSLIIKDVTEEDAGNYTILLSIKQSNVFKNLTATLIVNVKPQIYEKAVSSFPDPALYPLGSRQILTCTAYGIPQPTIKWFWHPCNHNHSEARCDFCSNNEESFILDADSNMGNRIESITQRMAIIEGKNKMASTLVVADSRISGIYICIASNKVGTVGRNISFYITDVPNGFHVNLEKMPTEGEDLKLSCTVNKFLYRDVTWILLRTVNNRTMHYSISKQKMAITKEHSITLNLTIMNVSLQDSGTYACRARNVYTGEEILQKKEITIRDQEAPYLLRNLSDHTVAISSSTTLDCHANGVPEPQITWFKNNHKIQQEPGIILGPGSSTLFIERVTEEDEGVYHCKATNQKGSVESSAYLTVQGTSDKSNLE
Text: ix) Binding of soluble VEGF receptor alkaline phosphatase fusion protein to immobilized VEGF. The flt-1 VEGF receptor was expressed as a fusion protein with AP as previously described (Roeckl et al, 1998) and tested for its binding capacity to immobilized VEGF as described in method (ii) above for the FGF receptor.

[6] = tested on: PLC-γ; test: PLC-γ phosphorylation in FGFR-3 expressing cells induced by FGF-9; format: cell-based; details: FIG. 15A
Description: (§1) (viii) Immunoblots. To the overnight serum-starved cells (2 plates for each treatment), 500 μl of F12^++ medium were added which either contained or not the respective porphyrin or corrole compound in a final concentration of […] for 40 min at 37° C. One of the two plates of each treatment was then stimulated with FGF9 (+) (75 ng/ml) and to the second plate only medium (−) was added for 10 min at 37° C. The cells were washed twice with PBS. 600 μl of SBN lysis buffer containing 1% NP-40 and 1 mM vanadate were added and left on ice for 10 min. The plates were then scraped and left on ice for additional 10 min. The lysate was span down in Eppendorf centrifuge for 15 min, 15000 rpm at 4° C. The supernatants were kept and Bradford protein determinant on assay was performed in the samples. 500 μg protein from each sample were taken for immunoprecipitation with 7.5 μl antibody against FGFR-3, 4 hr at 4° C.
These findings support the notion that the porphyrins can serve for treating FGFR-3 related growth disorders. ERK1 and ERK2 are two isoforms of ERK.

[7] = molecular target: T2, FGFR-3 (Homo sapiens, UniProt P22607); test: FGFR-3 tyrosine phosphorylation immunoblot (FGF-9 induced); format: cell-based; details: FIG. 14
T2 construct: expressed in transfected cells; host or cells: CHO cells (mutant 745)
T2 sequence (P22607 23-806, species assumed): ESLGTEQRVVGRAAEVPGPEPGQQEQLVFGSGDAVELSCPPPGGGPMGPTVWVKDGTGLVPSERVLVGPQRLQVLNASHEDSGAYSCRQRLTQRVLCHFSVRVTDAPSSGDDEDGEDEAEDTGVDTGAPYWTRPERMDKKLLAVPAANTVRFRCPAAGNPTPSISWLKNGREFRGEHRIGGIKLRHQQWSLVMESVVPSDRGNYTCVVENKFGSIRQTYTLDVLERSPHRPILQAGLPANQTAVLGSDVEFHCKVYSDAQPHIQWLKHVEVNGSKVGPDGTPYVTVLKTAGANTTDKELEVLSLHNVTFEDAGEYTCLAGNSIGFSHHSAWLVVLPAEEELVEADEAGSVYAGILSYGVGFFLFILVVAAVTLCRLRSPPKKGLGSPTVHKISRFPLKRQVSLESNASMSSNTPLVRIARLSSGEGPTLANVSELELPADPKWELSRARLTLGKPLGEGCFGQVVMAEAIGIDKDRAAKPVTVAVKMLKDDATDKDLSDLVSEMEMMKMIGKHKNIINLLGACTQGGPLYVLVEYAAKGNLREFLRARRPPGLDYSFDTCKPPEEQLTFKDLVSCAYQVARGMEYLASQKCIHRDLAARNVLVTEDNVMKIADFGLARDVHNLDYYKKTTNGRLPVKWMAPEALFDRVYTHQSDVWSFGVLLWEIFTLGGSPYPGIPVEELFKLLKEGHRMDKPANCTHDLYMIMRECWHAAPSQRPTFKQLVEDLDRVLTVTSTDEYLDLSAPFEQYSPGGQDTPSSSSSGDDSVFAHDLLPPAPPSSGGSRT
Description: as §1
In order to measure the ability of the porphyrins to inhibit the receptor activation on an enzymatic level as well, FGFR-3 tyrosine phosphorylation was measured in the presence of P16, as described in Methods, section (viii).

Chain of FGFR-1 (P16092 22-822): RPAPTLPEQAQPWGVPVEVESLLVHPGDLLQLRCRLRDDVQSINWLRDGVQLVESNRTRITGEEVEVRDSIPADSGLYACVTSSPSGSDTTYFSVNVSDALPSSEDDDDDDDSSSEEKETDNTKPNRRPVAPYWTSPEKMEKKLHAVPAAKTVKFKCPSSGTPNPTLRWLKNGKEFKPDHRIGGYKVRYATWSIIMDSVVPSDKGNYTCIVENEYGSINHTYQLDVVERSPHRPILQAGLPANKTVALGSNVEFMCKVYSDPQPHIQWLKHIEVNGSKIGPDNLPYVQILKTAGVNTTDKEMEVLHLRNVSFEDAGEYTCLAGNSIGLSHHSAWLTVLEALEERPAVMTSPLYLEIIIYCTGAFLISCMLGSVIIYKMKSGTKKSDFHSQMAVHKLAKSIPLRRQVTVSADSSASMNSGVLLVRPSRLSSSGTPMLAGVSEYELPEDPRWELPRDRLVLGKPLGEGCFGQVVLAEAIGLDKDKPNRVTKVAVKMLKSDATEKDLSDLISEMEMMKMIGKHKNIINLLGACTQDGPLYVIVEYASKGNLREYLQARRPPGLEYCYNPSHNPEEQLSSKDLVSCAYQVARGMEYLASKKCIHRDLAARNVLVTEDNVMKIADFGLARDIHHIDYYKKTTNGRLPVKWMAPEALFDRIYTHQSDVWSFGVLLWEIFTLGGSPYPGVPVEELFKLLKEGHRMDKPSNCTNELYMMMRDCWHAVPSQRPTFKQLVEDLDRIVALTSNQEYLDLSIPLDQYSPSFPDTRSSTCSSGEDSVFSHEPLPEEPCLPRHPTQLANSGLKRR

Row | Structure (SMILES) | Inhibition of bFGF-receptor complex formation (cross-linking), in words [1] | Inhibition of EGF binding to its receptor [2] | Effect on smooth muscle cell proliferation induced by bFGF [3] | Effect on bFGF-induced endothelial cell growth ([4]; 10 μM, with 2 ng/ml bFGF) | Effect on microvascular tubules ([4]; 100 μl P1, with 2 ng/ml bFGF) | IC50 [5] [nM] | Effect on PLC-γ activation [6] | Effect on FGFR-3 tyrosine phosphorylation [7]
1 | C[n+]1ccc(-c2c3nc(c(-c4cc[n+](C)cc4)c4ccc([nH]4)c(-c4cc[n+](C)cc4)c4nc(c(-c5cc[n+](C)cc5)c5ccc2[nH]5)C=C4)C=C3)cc1 [Compound P1, 5,10,15,20-Tetrakis(N-methyl-4-pyridylium)-21H,23H-porphine tetra-p-tosylate] | inhibition of formation of a typical bFGF-receptor complex | does not inhibit | strong inhibitory effect | dramatically reduced the extent of endothelial cell growth | complete inhibition of microvascular tubules | ~40 |  | 
2 | C[n+]1ccc(-c2c3nc(c(-c4cc[n+](C)cc4)c4ccc([nH]4)c(-c4c(F)c(F)c(F)c(F)c4F)c4nc(c(-c5cc[n+](C)cc5)c5ccc2[nH]5)C=C4)C=C3)cc1.[I-].[I-].[I-] [Compound P16, 5-Pentafluorophenyl-10,15,20-tris(N-methyl-4-pyridylium)-21H,23H-porphine triiodide] |  |  |  |  |  |  | clear reduction in the activation | reduced both the basal and, to a much greater extent, the FGF-9 induced phosphorylation of FGFR-3

Reference: US6730666B1, “Pharmaceutical compositions comprising porphyrins and some novel porphyrin derivatives” (Yeda Research and Development Co. Ltd., priority 1998, dated 2004)
